Laboratory results reported in the supplement of paper PMC10883282.

What was measured:
Experiment in all cases: relative viability vs DMSO control (72 h) (fraction); higher = more viable cells
SK-ES-1 = tested on: SK-ES-1
How it was run: (§1)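 Relative viability is percent growth read by ATPLite and averaged over up to triplicate wells. Sarcoma cells were seeded in 384-well plates to reach 80–90% confluence and given 2.5 µl of serially diluted compound after 24 h, from source plates of 10 mM to 0.0002 mM. Incubation lasted 72 h at 37 °C, 5% CO2, with 0.1% DMSO vehicle and a 5 µM positive control, and the data were rescaled so 1 equals full and 0 equals none.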

SK-LMS-1 = tested on: SK-LMS-1
How it was run: as §1

SW1353 = tested on: SW1353
How it was run: as §1

SW982 = tested on: SW982
How it was run: as §1

SYO-1 = tested on: SYO-1
How it was run: as §1

VA-ES-BJ = tested on: VA-ES-BJ
How it was run: as §1

COC(=O)c1ccc2c(c1)NC(=O)/C2=C(\Nc1ccc(N(C)C(=O)CN2CCN(C)CC2)cc1)c1ccccc1 [Nintedanib]
relative viability
Conditions	SK-ES-1	SK-LMS-1	SW982	SW1353	SYO-1	VA-ES-BJ
0.00017 µM	1	1.16	0.999	0.995	1	1.04
0.00051 µM	0.951	1.13	0.996	1.07	0.985	1.06
0.00152 µM	0.945	1.13	1	1.02	0.971	1.04
0.00457 µM	0.961	1.09	0.994	1.04	0.97	1.06
0.01372 µM	1.03	1.11	0.975	1.02	0.901	1.05
0.04115 µM	1.03	1.08	0.965	1.01	0.713	1.045
0.1235 µM	0.986	1.073	1	1.01	0.643	1.05
0.3704 µM	0.883	1.07	0.961	0.999	0.467	1.03
1.111 µM	0.571	1.03	0.87	0.958	0.369	0.993
3.333 µM	0.399	0.932	0.823	0.947	0.292	0.994
10 µM	0.0168	0.145	0.0461	0.57	0.099	0.803
